The values below come from publication PMC11563544 (Journal of Cerebral Blood Flow & Metabolism, 2024).

The experiment deals with alpha-2C adrenergic receptor (α2CR). As to the kind of experiment: in vivo PET receptor occupancy, competition with […]ORM-13070. Details: species or system Macaca fascicularis.

In general, EC50 refers to the concentration at which the effect is half-maximal. A lower EC50 goes with an effect from little substance. For the substance BAY 292, the EC50 was 0.03339 ± 0.01191 µg/mL.
